Measured values published in patent US9120849B2 (priority 2000, dated 2015).
Read-outs that look alike come from different tables or passages of the source.

Test system: bovine viral diarrhea virus (BVDV)
Settings: 60 minutes, 20° C., Reed and Muench
Method: In this example bovine viral diarrhea virus (BVDV), biotype 1 (CPE), genotype 1 Host: Madin-Darby bovine kidney (MDBK) cells were inactivated according to the methods discussed in Example 2.
Bovine viral diarrhea virus (BVDV), biotype I (CPE), genotype 1 was used in these studies which infect Madin-Darby bovine kidney (MDBK) cells. […] These samples (0.5 mL) were loaded into pre-spun sephacryl columns. The columns were spun for 4 minutes at 1000 rpm. The samples were aseptically removed from the columns and ten-fold serial dilutions were then prepared in minimal essential medium (MEM) and adsorbed on the monolayer of host cells seeded in tissue culture plates for one hour at 37±2° C. and 5±1% C02. Post-adsorption, the monolayers were washed with EBSS and replaced with fresh MEM and incubated for 5-7 days at 37±2° C. and 5±1% C02. The presence of infectious viruses was determined as described below: post-incubation, the plates were washed with 3× with PBS and fixed with TC grade alcohol and stained with direct porcine polyclonal anti-BVDV conjugated antibody. The stained plate were scored using UV microscopy using a Nikon Diaphot microscope, and monolayers that contained one or more BVDV surface antigen positive […] were scored positive. Four wells per dilution were inoculated and results were recorded as the FFFUD50 calculated by Reed and Munch (1938).

Measured: FFFUD50/mL (log10)

paraformaldehyde
0 FFFUD50/mL (log10): 2.5% paraformaldehyde column 1 | 2.5% paraformaldehyde column 2 | 2.5% paraformaldehyde column 3 | 2.5% paraformaldehyde column 4
